# Reference: US9669005B2, “Use of naringenin in preparing drugs for preventing and/or treatment abdominal aortic aneurysm” (priority 2013, dated 2017)
# Experiments:
# Assay type in all cases: in vivo
# MMP-2 and NMP-9 = assay: Gelatin zymography, CaPO4 model; settings: CaPO4 daubed mice; infrarenal abdominal aorta culture supernatant; FIG. 4B
# Method: After extravasated blood in fresh removed blood vessels of infrarenal site in abdominal aortas of mice were cleared, and fat and connective tissues were removed, and blood vessels were cut into 1 cm ring, and put into 24-well plate. Blood vessels were cultured for 24 hours using 0.5 ml serum-free medium with high glucose. After the cultured supernatant protein was quantified, mercaptoethanol-free protein sample loading buffer was added, cryopreserved at −80° C. Water was used to prepare gelatin (Sigma-Aldrich, St. Louis, Mo.) into a concentration of 10 mg/ml, which was added to separation gel of protein electrophoresis according to the proportion of 1:10, causing the final concentration of gelatin as 1 mg/ml. Electrophoresis was performed in a voltage of 80V at 4° C. The gel was put into 0.25% Trixon-100 solution, and washing was performed twice in 30 minutes. […] Incubated gel was put into Coomassie brilliant blue to stain for 1-2 hours at room temperature, washed for 30 minutes with a solution having 30% methanol and 10% glacial acetic acid, a solution having 20% methanol and 10% glacial acetic acid, and a solution having 10% methanol and 5% glacial acetic acid, respectively, and then analyzed with Odyssey infrared fluorescence scanning system (LI-COR Biosciences, Lincoln, Nebr.). […]
# [1] = test system: abdominal aortic aneurysms in angiotensin II induced ApoE-/- mice; assay: Abdominal aortic aneurysm model in ApoE-/- mice induced by angiotensin II submerging pump, naringenin gavage; settings: AngII ApoE-/- mice
# Method: Firstly, 16 weeks of male ApoE^−/− mice were randomly divided into two groups, control group (n=16) and naringenin group (n=15), respectively. And then they were anesthetized by 0.1% pentobarbital sodium, and mini pumps (model 2004, Alzet, Cupertino, Calif.) were subcutaneously submerged; angiotensin II (Sigma-Aldrich, St. Louis, Mo.) dissolved with normal saline was added to the pump, such that drugs can be continuously administrated for 4 weeks at a dosage of 1000 ng/kg/min. From the first day after surgery, gavage was daily performed to mice at constant time points, water gavage in control group, and naringenin gavage (50 mg/kg) in naringenin group. Materials were removed 28 days after gavage. Blood pressure of the mice was measured by tail cuff method with BP-89A sphygmomanometer (Beijing Softron Biotechnology Co., Ltd.), and the mice were weighted. Blood was drawn in inner canthus of the mice, and after centrifuged for 10 minutes at 6000 rotations, supernatant was removed and the blood fat levels of the mice were measured. […] Aortas of mice were fixed and separated. AngII group was the control group of angiotensin II submerging pump and water gavage. AngII+NGN group was the group of angiotensin II submerging pump and naringenin gavage. Four blood vessels were randomly selected in each group for photographing. The results were shown in FIG. 5A, the former two blood vessels in AngII group have significant bulges at suprarenal site, exceeding 50% of the diameters of the blood vessels at adjacent site, and arterial aneurysms are formed. […] Next, the statistics of the onset of abdominal aortic aneurysms in all the mice was performed. In the control group of angiotensin II submerging pump and water gavage, only one of 16 mice died from the fracture of aortic dissection within the first 7 days after submerging pump, another one died from the fracture of abdominal aortic aneurysms 1 week after submerging pump, abdominal aortic aneurysms were generated in 6 of the remaining 14 mice at 28th day after submerging pump. Therefore, in control group of angiotensin II submerging pump, aortic aneurysms were formed in 8 of 16 mice, that is, the morbidity of aortic aneurysms was 50%. And in the group of angiotensin II submerging pump and naringenin gavage, 1 of 15 mice died from the fracture of aortic aneurysms, only 1 of the remaining mice suffered from abdominal aortic aneurysms at 28 day after submerging pump. Therefore, in the group of angiotensin II submerging pump and naringenin gavage, only two of 15 mice suffered from aortic aneurysms, that is, the morbidity of aortic aneurysms was 13.3%. […] After removing materials from mice, aortas were perfused with 4% paraformaldehyde and fixed, the suprarenal aorta from diaphragm muscle to renal artery branch on the right side was equally divided into two segments, which were put into liquid nitrogen to freeze for 30 s after embedded with OCT. Serial sections were performed, the thickness of each section was 6 μm, with the spacing of 300 μm, and continuous 16 sections were performed on each mouse. H.E. staining was used to determine the diameters of abdominal aortas of mice, the diameters were measured and the maximum diameter was selected therefrom. The maximum diameter was compared with the diameter of adjacent site, and if the maximum diameter exceeds 50% of diameter of the adjacent site, it can be considered that the mouse suffered from an abdominal aortic aneurysm. […] We used Gomori staining to determine the fracture situation of the elastic lamina of abdominal aortas of mice, and statistics was performed. The results were shown in FIG. 6B, the fracture of the elastic lamina of abdominal aortas of mice decreases after naringenin gavage, and the mice detected in each group are all 6 mice. The data in Figure are an average value ±standard deviation.
# [2] = test system: aortic aneurysms in angiotensin II induced ApoE knockout mice; assay: Formed aortic aneurysms, ApoE knockout mice, second round of angiotensin II submerging pump with naringenin gavage
# Method: In addition, we used the method of angiotensin II subcutaneous submerging pump for 28 days (1,000 ng/kg/min), to induce abdominal aortic aneurysms on 20 weeks of male ApoE knockout mice (totally 40 mice) and used ultrasound to detect the diameters of the abdominal aortas. The diameter greater than 50% of diameter of adjacent blood vessel was used as a standard of the onset of an aortic aneurysm, and 28 mice suffered from aortic aneurysms 28 days later.
# Angiotensin II submerging pump was continuously given to all the mice for 28 days. […] In the mice which had suffered from aortic aneurysms previously, 4 mice in the 14 mice by water gavage died from fracture of aortic aneurysms, the other 10 survived mice all suffered from serious aortic aneurysms (the average diameter reaches 3.00±0.58 mm).
smiles,measurement,setting,value
O=C1C[C@@H](c2ccc(O)cc2)Oc2cc(O)cc(O)c21 [naringenin],MMP-2 and NMP-9 (gelatin zymography),MMP-2 and NMP-9,reverse the increase of MMP-2 and NMP-9 caused by CaPO4 daubing
same,morbidity of aortic aneurysms,"[1]; naringenin 50 mg/kg gavage 28 days, 15 mice, control 50%",13.3%
same,formation of abdominal aortic aneurysms (vascular photos),"[1]; naringenin 50 mg/kg gavage 28 days, FIG. 5A",reduce the formation of abdominal aortic aneurysms
same,maximum diameter of suprarenal abdominal aortas (H.E. staining),"[1]; naringenin gavage, 11 mice per group, FIG. 6A",significantly decreases
same,fracture of the elastic lamina of abdominal aortas (Gomori staining),"[1]; naringenin gavage, FIG. 6B",decreases
same,Dissection (number of mice),"[1]; naringenin gavage, of 15 mice",0
same,Fracture (number of mice),"[1]; naringenin gavage, of 15 mice",1
same,Without aneurysm (number of mice),"[1]; naringenin gavage, of 15 mice",13
same,aneurysm (number of mice),"[1]; naringenin gavage, of 15 mice, 28th day",1
same,survival after the second round of angiotensin II,"[2]; ApoE knockout mice with previously formed aneurysms, 14 mice, naringenin gavage, 4 of 14 died in water group",all normally survived
same,"maximum diameter of the blood vessels (abdominal aorta, ultrasound)","[2]; ApoE knockout mice with previously formed aneurysms, naringenin gavage, second AngII round, water group 3.00±0.58",1.62±0.45 mm
same,number of mice in which aortic aneurysms were observed,"[2]; ApoE knockout mice with previously formed aneurysms, of 14 mice, naringenin gavage, second AngII round 28 days",5
same,incidence rate of aortic aneurysms,"[2]; ApoE knockout mice without aneurysm after first AngII round, 6 mice, second AngII round 28 days with naringenin gavage, control 50%",16%
